Where two headings read alike, the source gives them in different places.
How the values were obtained:
[1] = test system: microfilaria of Dirofilaria immitis; assay: Method F: microfilaria of Dirofilaria immitis, survival at 24 hours
[2] = test system: Haemonchus contortus; assay: Method A: Haemonchus contortus L1 larvae, microtitre plate screen; conditions: 96 h, read-out: motility inhibition
[3] = survival of microfilaria at 24 hours

Structure (SMILES) | EC50 [1] [µg/mL] | inhibition at 5 µg/mL [2] [%] | EC50 [1, 3] [µg/mL]
O=C(NCCO[C@H]1CC[C@H](Nc2ccc([N+](=O)[O-])c(C(F)(F)F)c2)CC1)C(=O)NCC1Cc2cc(F)ccc2O1 (some centres unmarked) [Compound 217] | < 1 | ≥ 90 | 
O=C(NCCO[C@H]1CC[C@H](Nc2ccc([N+](=O)[O-])c(C(F)(F)F)c2)CC1)C(=O)NCC1Cc2cc(Cl)ccc2O1 (some centres unmarked) [Compound 218, N^1-[(5-chloro-2,3-dihydro-1-benzofuran-2-yl)methyl]-N^2-[2-[(4-[[4-nitro-3-(trifluoromethyl)phenyl]amino]cyclohexyl)oxy]ethyl]ethanediamide] |  | ≥ 90 | < 1
O=C(NCCO[C@H]1CC[C@H](Nc2ccc([N+](=O)[O-])c(C(F)(F)F)c2)CC1)C(=O)NCC1Cc2cc(C(F)(F)F)ccc2O1 (some centres unmarked) [Compound 219, N^1-[2-[(4-[[4-nitro-3-(trifluoromethyl)phenyl]amino]cyclohexyl)oxy]ethyl]-N^2-[[5-(trifluoromethyl)-2,3-dihydro-1-benzofuran-2-yl]methyl]ethanediamide] |  | ≥ 90 | < 1
O=C(NCCO[C@H]1CC[C@H](Nc2ccc([N+](=O)[O-])c(C(F)(F)F)c2)CC1)C(=O)NCc1cc2ccccc2o1 [Compound 220, N^1-(benzofuran-2-ylmethyl)-N^2-(2-(4-(4-nitro-3-(trifluoromethyl)phenylamino)cyclohexyloxy)ethyl)oxalamide] |  | ≥ 90 | < 1
O=C(NCCO[C@H]1CC[C@H](Nc2ccc([N+](=O)[O-])c(C(F)(F)F)c2)CC1)C(=O)NCc1cc2cc(C(F)(F)F)ccc2o1 [Compound 223, N^1-(2-(4-(4-nitro-3-(trifluoromethyl)phenylamino)cyclohexyloxy)ethyl)-N^2-((5-(trifluoromethyl)benzofuran-2-yl)methyl)oxalamide] | < 0.1 | ≥ 90 | 
O=C(NCCOc1ccc(Nc2ccc([N+](=O)[O-])c(C(F)(F)F)c2)cc1)C(=O)NCC1Cc2cc(F)ccc2O1 (centres unmarked) [Compound 225, N^1-((5-fluoro-2,3-dihydrobenzofuran-2-yl)methyl)-N^2-(2-(4-(4-nitro-3-(trifluoromethyl)phenylamino)phenoxy)ethyl)oxalamide] |  | ≥ 90 | < 1
O=C(NCCOc1ccc(Nc2ccc([N+](=O)[O-])c(C(F)(F)F)c2)cc1)C(=O)NCC1Cc2cc(Cl)ccc2O1 (centres unmarked) [Compound 226, N^1-((5-chloro-2,3-dihydrobenzofuran-2-yl)methyl)-N^2-(2-(4-(4-nitro-3-(trifluoromethyl)phenylamino)phenoxy)ethyl)oxalamide] |  | ≥ 90 | < 1
O=C(NCCOc1ccc(Nc2ccc([N+](=O)[O-])c(C(F)(F)F)c2)cc1)C(=O)NCC1Cc2cc(C(F)(F)F)ccc2O1 (centres unmarked) [Compound 227, N^1-(2-(4-(4-nitro-3-(trifluoromethyl)phenylamino)phenoxy)ethyl)-N^2-((5-(trifluoromethyl)-2,3-dihydrobenzofuran-2-yl)methyl)ethanediamide] |  | ≥ 90 | < 1
O=C(CO[C@H]1CC[C@H](Nc2ccc([N+](=O)[O-])c(C(F)(F)F)c2)CC1)N1CCN(c2ccc3cc(C(F)(F)F)ccc3c2)CC1 [Compound 232, 2-[4-(4-nitro-3-trifluoromethyl-phenylamino)-cyclohexyloxy]-1-[4-(6-trifluoromethyl-naphthalen-2-yl)-piperazin-1-yl]-ethanone] |  | ≥ 90 | < 5
O=C(CO[C@H]1CC[C@H](Nc2ccc([N+](=O)[O-])c(C(F)(F)F)c2)CC1)N1CCN(c2ccc3cc(Cl)ccc3c2)CC1 [Compound 233, 1-[4-(6-chloro-2-naphthyl)piperazin-1-yl]-2-[4-[4-nitro-3-(trifluoromethyl)anilino]cyclohexoxy]ethanone] |  | ≥ 90 | < 1
O=C(CO[C@H]1CC[C@H](Nc2ccc([N+](=O)[O-])c(C(F)(F)F)c2)CC1)N1CCN(c2cc3cc(F)ccc3s2)CC1 [Compound 236, 1-(4-(5-fluorobenzo[b]thiophen-2-yl)piperazin-1-yl)-2-((4-((4-nitro-3-(trifluoromethyl)phenyl)amino)cyclohexyl)oxy)ethanone] |  | ≥ 90 | < 1
CN(c1ccc([N+](=O)[O-])c(C(F)(F)F)c1)[C@H]1CC[C@H](OCC(=O)N2CCN(c3ccc4cc(F)ccc4n3)CC2)CC1 [Compound 247, 1-(4-(6-fluoroquinolin-2-yl)piperazin-1-yl)-2-(4-(methyl(4-nitro-3-(trifluoromethyl)phenyl)amino)cyclohexyloxy)ethanone] |  | ≥ 90 | < 1
CN(c1ccc([N+](=O)[O-])c(C(F)(F)F)c1)[C@H]1CC[C@H](OCC(=O)N2CCN(c3ccc4cc(F)ccc4c3)CC2)CC1 [Compound 248, 1-(4-(6-fluoronaphthalen-2-yl)piperazin-1-yl)-2-(4-(methyl(4-nitro-3-(trifluoromethyl)phenyl)amino)cyclohexyloxy)ethanone] | < 0.1 | ≥ 90 | 
CC(O[C@H]1CC[C@H](Nc2ccc([N+](=O)[O-])c(C(F)(F)F)c2)CC1)C(=O)N1CCN(c2ccc3cc(C(F)(F)F)ccc3n2)CC1 (some centres unmarked) [Compound 249, 2-[[-4-[[4-nitro-3-(trifluoromethyl)phenyl]amino]cyclohexyl]oxy]-1-[4-[6-(trifluoromethyl)quinolin-2-yl]piperazin-1-yl]propan-1-one] | < 1 | ≥ 90 | 
CC(O[C@H]1CC[C@H](Nc2ccc([N+](=O)[O-])c(C(F)(F)F)c2)CC1)C(=O)N1CCN(c2ccc3cc(Cl)ccc3n2)CC1 (some centres unmarked) [Compound 250, 1-[4-(6-chloroquinolin-2-yl)piperazin-1-yl]-2-[[4-[[4-nitro-3-(trifluoromethyl)phenyl]amino]cyclohexyl]oxy]propan-1-one] |  | ≥ 90 | < 1
CC(O[C@H]1CC[C@H](Nc2ccc([N+](=O)[O-])c(C(F)(F)F)c2)CC1)C(=O)N1CCN(c2ccc3cc(F)ccc3n2)CC1 (some centres unmarked) [Compound 251, 1-[4-(6-fluoroquinolin-2-yl)piperazin-1-yl]-2-[[4-[[4-nitro-3-(trifluoromethyl)phenyl]amino]cyclohexyl]oxy]propan-1-one] |  | ≥ 90 | < 1
CC(O[C@H]1CC[C@H](Nc2ccc([N+](=O)[O-])c(C(F)(F)F)c2)CC1)C(=O)N1CCN(c2ccc3cc(F)ccc3c2)CC1 (some centres unmarked) [Compound 252, 1-(4-(6-fluoronaphthalen-2-yl)piperazin-1-yl)-2-(−4-(4-nitro-3-(trifluoromethyl)phenylamino)cyclohexyloxy)propan-1-one] |  | ≥ 90 | < 1
O=C(CO[C@H]1CC[C@H](Nc2ccc([N+](=O)[O-])c(C(F)(F)F)c2)CC1)N1CCN(Cc2oc3ccc(C(F)(F)F)cc3c2Cl)CC1 [Compound 253, 1-(4-[[3-chloro-5-(trifluoromethyl)-1-benzofuran-2-yl]methyl]piperazin-1-yl)-2-[[4-[[4-nitro-3-(trifluoromethyl)phenyl]amino]cyclohexyl]oxy]ethan-1-one] |  | ≥ 90 | < 0.1
CC(c1oc2ccc(C(F)(F)F)cc2c1Cl)N1CCN(C(=O)CO[C@H]2CC[C@H](Nc3ccc([N+](=O)[O-])c(C(F)(F)F)c3)CC2)CC1 (some centres unmarked) [Compound 255, 2-1-(4-[1-[3-chloro-5-(trifluoromethyl)-1-benzofuran-2-yl]ethyl]piperazin-1-yl)-2-[[4-[[4-nitro-3-(trifluoromethyl)phenyl]amino]cyclohexyl]oxy]ethan-1-one] |  | ≥ 90 | < 1
CC(c1cc2cc(C(F)(F)F)ccc2o1)N1CCN(C(=O)CO[C@H]2CC[C@H](N(C)c3ccc([N+](=O)[O-])c(C(F)(F)F)c3)CC2)CC1 (some centres unmarked) [Compound 257, 2-[[4-[methyl[4-nitro-3-(trifluoromethyl)phenyl]amino]cyclohexyl]oxy]-1-(4-[1-[5-(trifluoro-methyl)-1-benzofuran-2-yl]ethyl]piperazin-1-yl)ethan-1-one] |  | ≥ 90 | < 5
CN(c1ccc([N+](=O)[O-])c(C(F)(F)F)c1)[C@H]1CC[C@H](OCC(=O)N2CCN(Cc3oc4ccc(C(F)(F)F)cc4c3Cl)CC2)CC1 [Compound 258, 1-(4-[[3-chloro-5-(trifluoromethyl)-1-benzofuran-2-yl]methyl]piperazin-1-yl)-2-[[4-[methyl[4-nitro-3-(trifluoromethyl)phenyl]amino]cyclohexyl]oxy]ethan-1-one] |  | ≥ 90 | < 1
O=[N+]([O-])c1ccc(N[C@H]2CC[C@H](OCC(=S)N3CCN(c4ccc5cc(F)ccc5c4)CC3)CC2)cc1C(F)(F)F [Compound 263, 1-[4-(6-fluoro-naphthalen-2-yl)-piperazin-1-yl]-2-[4-(4-nitro-3-trifluoromethyl-henylamino)-cyclohexyloxy]-ethanethione] |  | ≥ 90 | < 1
O=[N+]([O-])c1ccc(N[C@H]2CC[C@H](OCC(=S)N3CCN(CC4Cc5cc(F)ccc5O4)CC3)CC2)cc1C(F)(F)F (some centres unmarked) [Compound 265, 1-[4-(5-fluoro-2,3-dihydro-benzofuran-2-ylmethyl)-piperazin-1-yl]-2-[4-(4-nitro-3-trifluoromethyl-phenylamino)-cyclohexyloxy]-ethanethione] |  | ≥ 90 | < 1
CN(c1ccc([N+](=O)[O-])c(C(F)(F)F)c1)[C@H]1CC[C@H](OCC(=O)N2CCN(Cc3cc4cc(Cl)ccc4o3)CC2)CC1 [Compound 275, 2-[(4-[methyl[4-nitro-3-(trifluoromethyl)phenyl]amino]cyclohexyl)-oxy]1-[4-(5-chlorobenzofuran-2-ylmethyl)piperazin-1-yl]ethan-1-one] |  | ≥ 90 | < 1
Cc1cc(N2CCN(C(=O)CO[C@H]3CC[C@H](Nc4ccc([N+](=O)[O-])c(C(F)(F)F)c4)CC3)CC2)nc2ccc(Br)cc12 [Compound 277, 1-[4-(6-bromo-4-methyl-2-quinolyl)piperazin-1-yl]-2-[4-[4-nitro-3-(trifluoromethyl)anilino]cyclohexoxy]ethanone] |  | ≥ 90 | < 5

— US9249102B2 (priority 2012, dated 2016)
